Data: patent US11814367B2, “Inhibitors of glycogen synthase 1 (GYS1) and methods of use thereof” (Maze Therapeutics, Inc., priority 2021, dated 2023)

How the values were obtained:
[1] = biological target: hGYS2 enzyme (recombinant hGYS2/GN1 protein) (Homo sapiens (Human), UniProt P54840); assay: GYS2 coupled enzyme assay (PK/LDH); type: biochemical; settings: geometric mean of at least 2 assay runs on separate days, read-out: Avg_IC50
Summary of the method: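 Read-out: NADH loss at 340 nm, read each minute for 10 min, slope normalized to controls, duplicate % inhibition fit to Hill (0–100). Enzyme: 200 nM hGYS2/GN1; substrate 2 mM UDP-glucose plus 0.2% glycogen and 2 mM G6P; pH 7.5 Tris, 2.5% DMSO.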

[2] = biological target: hGYS1 enzyme (recombinant hGYS1/GN1 protein) (Homo sapiens (Human), UniProt P13807); assay: GYS1 coupled enzyme assay (PK/LDH); type: biochemical; settings: hGYS1/GN1 50 nM, UDP-Glucose 0.8 mM, G6P 1 mM; geometric mean of at least 2 runs
[3] = tested on: hGYS1 enzyme / glycogen synthesis in HeLa cells; assay: GYS1 cell based assay (glycogen synthesis, Glucose-glo); set-up: species or system human; settings: 24 h incubation, 20 mM glucose, geometric mean of at least 2 runs
Summary of the method: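 HeLa cells starved 24 h in medium containing only 1× Glutamax were plated onto compound in medium with 20 mM glucose (1% DMSO final) for 24 h, 37 °C, 5% CO2. Acid lysates were Tris-quenched, glucoamylase-digested (pH 5.3, 1 h, 37 °C) and read by Glucose-glo luminescence. IC50 came from Hill fits, as geometric mean of ≥2 runs.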

hGYS1 enzyme (recombinant hGYS1/GN1 protein), sequence (P13807 whole entry): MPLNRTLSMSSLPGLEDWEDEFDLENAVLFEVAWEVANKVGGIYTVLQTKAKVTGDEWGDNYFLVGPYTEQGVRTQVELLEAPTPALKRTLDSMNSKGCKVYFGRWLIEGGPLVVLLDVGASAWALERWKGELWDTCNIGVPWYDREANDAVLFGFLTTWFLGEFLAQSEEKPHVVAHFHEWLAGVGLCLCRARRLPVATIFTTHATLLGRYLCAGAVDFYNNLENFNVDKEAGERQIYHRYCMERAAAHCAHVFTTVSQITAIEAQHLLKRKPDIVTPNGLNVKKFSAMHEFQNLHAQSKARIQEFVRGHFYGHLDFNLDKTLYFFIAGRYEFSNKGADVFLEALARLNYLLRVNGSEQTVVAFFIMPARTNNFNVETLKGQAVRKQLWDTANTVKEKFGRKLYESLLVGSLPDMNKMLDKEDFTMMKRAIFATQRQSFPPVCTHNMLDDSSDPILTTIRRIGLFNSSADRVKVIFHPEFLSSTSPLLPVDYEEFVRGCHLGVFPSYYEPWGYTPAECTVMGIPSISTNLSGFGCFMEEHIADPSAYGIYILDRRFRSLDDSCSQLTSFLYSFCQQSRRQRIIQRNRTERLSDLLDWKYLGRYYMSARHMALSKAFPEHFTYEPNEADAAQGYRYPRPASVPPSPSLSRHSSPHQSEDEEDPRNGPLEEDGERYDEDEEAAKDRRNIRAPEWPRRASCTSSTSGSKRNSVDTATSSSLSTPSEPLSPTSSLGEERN
hGYS1 enzyme (recombinant hGYS1/GN1 protein), sequence (P46976 whole entry partner): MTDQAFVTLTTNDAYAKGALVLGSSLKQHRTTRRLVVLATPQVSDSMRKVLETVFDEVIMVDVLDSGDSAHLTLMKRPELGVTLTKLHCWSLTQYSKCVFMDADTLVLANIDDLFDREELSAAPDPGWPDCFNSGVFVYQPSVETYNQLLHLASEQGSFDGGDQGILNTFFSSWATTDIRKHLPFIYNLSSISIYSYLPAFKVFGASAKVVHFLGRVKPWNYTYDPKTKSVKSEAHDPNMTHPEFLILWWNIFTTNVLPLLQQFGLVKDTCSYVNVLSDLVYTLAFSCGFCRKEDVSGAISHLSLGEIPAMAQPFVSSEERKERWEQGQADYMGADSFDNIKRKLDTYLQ
hGYS2 enzyme (recombinant hGYS2/GN1 protein), sequence (P54840 whole entry): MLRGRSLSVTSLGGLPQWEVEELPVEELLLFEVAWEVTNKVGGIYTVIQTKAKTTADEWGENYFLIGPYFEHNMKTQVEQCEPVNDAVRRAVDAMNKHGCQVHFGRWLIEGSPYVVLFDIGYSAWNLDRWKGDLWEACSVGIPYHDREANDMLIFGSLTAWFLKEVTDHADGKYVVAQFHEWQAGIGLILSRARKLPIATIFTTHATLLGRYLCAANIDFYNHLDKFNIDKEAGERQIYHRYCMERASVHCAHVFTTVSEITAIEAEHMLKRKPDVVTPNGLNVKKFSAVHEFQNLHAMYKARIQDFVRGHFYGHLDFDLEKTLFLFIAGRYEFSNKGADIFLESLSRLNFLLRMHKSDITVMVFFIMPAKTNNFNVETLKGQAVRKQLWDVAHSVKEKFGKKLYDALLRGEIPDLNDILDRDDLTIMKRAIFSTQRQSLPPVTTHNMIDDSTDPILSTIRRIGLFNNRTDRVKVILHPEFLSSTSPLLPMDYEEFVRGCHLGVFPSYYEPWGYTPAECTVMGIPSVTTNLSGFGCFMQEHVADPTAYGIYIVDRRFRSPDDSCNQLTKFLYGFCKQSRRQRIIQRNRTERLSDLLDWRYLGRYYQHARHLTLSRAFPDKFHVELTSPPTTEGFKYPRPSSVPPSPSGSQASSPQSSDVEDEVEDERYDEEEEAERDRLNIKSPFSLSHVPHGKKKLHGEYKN
hGYS2 enzyme (recombinant hGYS2/GN1 protein), sequence (P46976 whole entry partner): as the sequence (P46976 whole entry partner) above

CC(C)c1ccc([C@@H](NC(=O)[C@@H]2C[C@@H](F)CN2C(=O)C(C)n2cnnn2)c2ccccc2)cc1F (single isomer, unassigned) [Compound 766, (2S,4R)-4-fluoro-N-[(S)-[3-fluoro-4-(propan-2-yl)phenyl](phenyl)methyl]-1-[(2R) or (2S)-2-(1H-1,2,3,4-tetrazol-1-yl)propanoyl]pyrrolidine-2-carboxamide]
IC50 [1]: > 100000 nM | IC50 [2]: 38 nM | IC50 ([3]; Homo sapiens, HeLa, 24 h): 350 nM

CC(C)c1ccc([C@@H](NC(=O)[C@@H]2C[C@@H](F)CN2C(=O)Cn2cnnn2)c2ccccc2)nc1 [Compound 252, (2S,4R)-4-fluoro-N-[(S)-phenyl[5-(propan-2-yl)pyridin-2-yl]methyl}-1-[2-(1H-1,2,3-tetrazol-1-yl)acetyl]pyrrolidine-2-carboxamide]
IC50 [1]: > 100000 nM | IC50 [2]: 186 nM | IC50 ([3]; Homo sapiens, HeLa, 24 h): 2480 nM

Cc1coc(CC(=O)N2C[C@H](F)C[C@H]2C(=O)N[C@@H](c2ccccc2)c2ccc(C(C)C)c(F)n2)n1 [Compound 409, (2S,4R)-4-fluoro-N-[(S)-[6-fluoro-5-(propan-2-yl)pyridin-2-yl](phenyl)methyl]-1-[2-(4-methyl-1,3-oxazol-2-yl)acetyl] pyrrolidine-2-carboxamide]
IC50 [1]: > 100000 nM | IC50 [2]: 10 nM | IC50 ([3]; Homo sapiens, HeLa, 24 h): 290 nM

CN(C)C(=O)NCC(=O)N1C[C@H](F)C[C@H]1C(=O)N[C@@H](c1ccccc1)c1ccc(C2CC(F)(F)C2)c(F)n1 [Compound 507, (2S,4R)-N-[(S)-[5-(3,3-difluorocyclobutyl)-6-fluoropyridin-2-yl](phenyl)methyl]-1-{2-[(dimethylcarbamoyl)amino]acetyl}-4-fluoropyrrolidine-2-carboxamide]
IC50 [1]: > 100000 nM | IC50 [2]: 22 nM | IC50 ([3]; Homo sapiens, HeLa, 24 h): 260 nM

Cc1cc(C(NC(=O)[C@@H]2C[C@@H](F)CN2C(=O)Cc2cnn[nH]2)c2ccccc2)cc(F)c1C(C)C (single isomer, unassigned) [Compound 680, (2S,4R)-4-fluoro-N-[(S) or (R)-[3-fluoro-5-methyl-4-(propan-2-yl)phenyl](phenyl)methyl]-1-[2-(1H-1,2,3-triazol-5-yl)acetyl]pyrrolidine-2-carboxamide]
IC50 [1]: 93000 nM | IC50 [2]: 15 nM | IC50 [3]: 270 nM

CC(C)c1c(F)cc([C@@H](NC(=O)[C@@H]2C[C@@H](F)CN2S(=O)(=O)Cc2cnn[nH]2)c2ccccc2)cc1F [Compound 659, (2S,4R)-1-(((1H-1,2,3-triazol-5-yl)methyl)sulfonyl)-N—((S)-(3,5-difluoro-4-isopropylphenyl)(phenyl)methyl)-4-fluoropyrrolidine-2-carboxamide]
IC50 [1]: 17500 nM | IC50 [2]: 331 nM | IC50 ([3]; Homo sapiens): 4350 nM

CC(C)c1ccc([C@@H](NC(=O)[C@@H]2C[C@@H](F)CN2C(=O)Cn2cnc3ccccc32)c2ccccc2)nc1 [Compound 248, (2S,4R)-1-[2-(1H-1,3-benzodiazol-1-yl)acetyl]-4-fluoro-N-[(S)-phenyl[5-(propan-2-yl)pyridin-2-yl]methy]pyrrolidine-2-carboxamide]
IC50 [1]: > 100000 nM | IC50 [2]: 12 nM | IC50 ([3]; Homo sapiens, HeLa, 24 h): 200 nM

CC(C)c1ccc([C@@H](NC(=O)[C@@H]2[C@H]3C[C@H]3CN2C(=O)Cc2cnn[nH]2)c2ccccc2)nc1 [Compound 279, (1S,2S,5R)-N-[(S)-phenyl[5-(propan-2-yl)pyridin-2-yl]methyl]-3-[2-(1H-1,2,3-triazol-5-yl)acetyl]-3-azabicyclo[3.1.0]hexane-2-carboxamide]
IC50 [1]: > 100000 nM | IC50 [2]: 234 nM | IC50 ([3]; Homo sapiens, HeLa, 24 h): 2310 nM

CC(C)c1ccc(C(NC(=O)[C@@H]2C[C@@H](F)CN2C(=O)Cc2cnn[nH]2)c2ccn[nH]2)cc1F (single isomer, unassigned) [Compound 623, (2S,4R)-4-fluoro-N-[(R) or (S)-[3-fluoro-4-(propan-2-yl)phenyl](1H-pyrazol-5-yl)methyl]-1-[2-(1H-1,2,3-triazol-5-yl)acetyl]pyrrolidine-2-carboxamide]
IC50 [1]: > 100000 nM | IC50 [2]: 111 nM | IC50 ([3]; Homo sapiens, HeLa, 24 h): 4070 nM

COc1nc(C(NC(=O)[C@@H]2C[C@@H](F)CN2C(=O)Cc2cnn[nH]2)c2ccccc2)ccc1C(C)C (single isomer, unassigned) [Compound 612, (2S,4R)-4-fluoro-N-[(S) or (R)-[6-methoxy-5-(propan-2-yl)pyridin-2-yl] (phenyl)methyl]-1-[2-(1H-1,2,3-triazol-5-yl)acetyl]pyrrolidine-2-carboxamide]
IC50 [2]: 2180 nM | IC50 ([3]; Homo sapiens, HeLa, 24 h): > 29000 nM

CC(C)c1ccc(C(NC(=O)[C@@H]2C[C@@H](F)CN2C(=O)Cc2cnn[nH]2)c2ncn3ccccc23)nc1F (single isomer, unassigned) [Compound 629, (2S,4R)-4-fluoro-N-[(S) or (R)-[6-fluoro-5-(propan-2-yl)pyridin-2-yl]({imidazo[1,5-a]pyridin-1-yl})methyl]-1-[2-(1H-1,2,3-triazol-5-yl)acetyl]pyrrolidine-2-carboxamide]
IC50 [2]: 1480 nM | IC50 ([3]; Homo sapiens, HeLa, 24 h): > 24000 nM

Cn1ncc(CC(=O)N2C[C@H](F)C[C@H]2C(=O)N[C@@H](c2ccccc2)c2ccc(C3CC3)c(F)n2)c1C(F)F [Compound 751, (2S,4R)-N-[(S)-(5-cyclopropyl-6-fluoropyridin-2-yl)(phenyl)methyl]-1-{2-[5-(difluoromethyl)-1-methyl-1H-pyrazol-4-yl]acetyl}-4-fluoropyrrolidine-2-carboxamide]
IC50 [2]: 13 nM | IC50 ([3]; Homo sapiens, HeLa, 24 h): 470 nM

CC(C)c1ccc([C@@H](NC(=O)[C@@H]2C[C@@H](F)CN2C(=O)Cc2nn(C)c(=O)n2C)c2ccccc2)nc1F [Compound 779, (2S,4R)-1-[2-(1,4-dimethyl-5-oxo-4,5-dihydro-1H-1,2,4-triazol-3-yl)acetyl]-4-fluoro-N-[(S)-[6-fluoro-5-(propan-2-yl)pyridin-2-yl](phenyl)methyl] pyrrolidine-2-carboxamide]
IC50 [1]: > 100000 nM | IC50 ([3]; Homo sapiens, HeLa, 24 h): 330 nM

COC(=O)NCc1cccc([C@H](NC(=O)[C@@H]2C[C@@H](F)CN2C(=O)Cc2cnn[nH]2)c2ccc(C(C)C)c(F)n2)c1 [Compound 638, methyl (3-((S)-((2S,4R)-1-(2-(1H-1,2,3-triazol-5-yl)acetyl)-4-fluoropyrrolidine-2-carboxamido)(6-fluoro-5-isopropylpyridin-2-yl)methyl)benzyl)carbamate]
IC50 [2]: 399 nM | IC50 ([3]; Homo sapiens): > 23400 nM

CCn1cc(CC(=O)N2C[C@H](F)C[C@H]2C(=O)N[C@@H](c2ccccc2)c2ccc(C3CC3)c(F)n2)ncc1=O [Compound 742, (2S,4R)-N-[(S)-(5-cyclopropyl-6-fluoropyridin-2-yl)(phenyl)methyl]-1-[2-(4-ethyl-5-oxo-4,5-dihydropyrazin-2-yl)acetyl]-4-fluoropyrrolidine-2-carboxamide]
IC50 [2]: 24 nM | IC50 ([3]; Homo sapiens, HeLa, 24 h): 630 nM

O=C(N[C@H](c1ccccc1)c1ccc(C2CC(F)(F)C2)c(F)c1)[C@@H]1C[C@@H](F)CN1C(=O)CNC(=O)N1CCC1 [Compound 545, (2S,4R)-1-((azetidine-1-carbonyl)glycyl)-N—((R)-(4-(3,3-difluorocyclobutyl)-3-fluorophenyl)(phenyl)methyl)-4-fluoropyrrolidine-2-carboxamide]
IC50 [2]: 1680 nM | IC50 ([3]; Homo sapiens, HeLa, 24 h): > 30000 nM
